In patent US20220177508A1, “C10-Cyclic Substituted 13-Membered Macrolides and Uses Thereof” (Zikani Therapeutics, Inc., priority 2018, published 2022):
Values after ≈ are worked out from the molar mass of the structure shown.

Columns and labels:
Type in all cases: cell-based
S. aureus MP-12 = experiment: Broth dilution MIC determination (CLSI), S. aureus MP-12; settings: Staphylococcus aureus, MP12; strain MP-12, broth dilution
E. coli MP-4 = experiment: Broth dilution MIC determination (CLSI), E. coli MP-4; settings: Escherichia coli, MP4; strain MP-4, broth dilution; read-out: MIC E. coli MP-4
K. pneumoniae MP-546 = experiment: Broth dilution MIC determination (CLSI), K. pneumoniae MP-546; settings: Klebsiella pneumoniae, MP546; strain MP-546, broth dilution
P. aeruginosa MP-3 = experiment: Broth dilution MIC determination (CLSI), P. aeruginosa MP-3; settings: Pseudomonas aeruginosa, MP3; strain MP-3, broth dilution
A. baumannii MP-15 = experiment: Broth dilution MIC determination (CLSI), A. baumannii MP-15; settings: Acinetobacter baumannii, MP15; strain MP-15, broth dilution; read-out: MIC A. baumanii MP-15

MIC (S. aureus MP-12)	MIC (E. coli MP-4)	MIC (K. pneumoniae MP-546)	MIC (P. aeruginosa MP-3)	MIC (A. baumannii MP-15)	Structure (SMILES)
4 to 32 µg/mL (≈ 6.41 to 51.3 µM)	< 4 µg/mL	< 4 µg/mL	> 32 µg/mL	4 to 32 µg/mL (≈ 6.41 to 51.3 µM)	CO[C@]1(C)C[C@@H](C)CN(C)[C@H](C2CN(CC3CCC3)C2)COC(=O)C(C)(C)C(=O)[C@H](C)[C@H]1O[C@@H]1O[C@H](C)C[C@H](N(C)C)[C@H]1O [Compound 17, (3R,6R,8R,9R,10R)-3-(1-(cyclobutylmethyl)azetidin-3-yl)-9-(((2S,3R,4S,6R)-4-(dimethylamino)-3-hydroxy-6-methyltetrahydro-2H-pyran-2-yl)oxy)-8-methoxy-4,6,8,10,12,12-hexamethyl-1-oxa-4-azacyclotridecane-11,13-dione]
> 32 µg/mL	< 4 µg/mL	4 to 32 µg/mL (≈ 6.85 to 54.8 µM)	> 32 µg/mL	> 32 µg/mL	CO[C@]1(C)C[C@@H](C)CN(C)[C@@H]([C@H]2CNC(=O)C2)COC(=O)C(C)(C)C(=O)[C@H](C)[C@H]1O[C@@H]1O[C@H](C)C[C@H](N(C)C)[C@H]1O [Compound 8, (3S,6R,8R,9R,10R)-9-(((2S,3R,4S,6R)-4-(dimethylamino)-3-hydroxy-6-methyltetrahydro-2H-pyran-2-yl)oxy)-8-methoxy-4,6,8,10,12,12-hexamethyl-3-((R)-5-oxopyrrolidin-3-yl)-1-oxa-4-azacyclotridecane-11,13-dione]
4 to 32 µg/mL (≈ 6.24 to 49.9 µM)	< 4 µg/mL	< 4 µg/mL	> 32 µg/mL	> 32 µg/mL	CO[C@]1(C)C[C@@H](C)CN(C)[C@H](C2CN(C(=O)CN(C)C)C2)COC(=O)C(C)(C)C(=O)[C@H](C)[C@H]1O[C@@H]1O[C@H](C)C[C@H](N(C)C)[C@H]1O [Compound 28, (3R,6R,8R,9R,10R)-9-(((2S,3R,4S,6R)-4-(dimethylamino)-3-hydroxy-6-methyltetrahydro-2H-pyran-2-yl)oxy)-3-(1-(dimethylglycyl)azetidin-3-yl)-8-methoxy-4,6,8,10,12,12-hexamethyl-1-oxa-4-azacyclotridecane-11,13-dione]
4 to 32 µg/mL (≈ 6.39 to 51.1 µM)	< 4 µg/mL	4 to 32 µg/mL (≈ 6.39 to 51.1 µM)	> 32 µg/mL	> 32 µg/mL	CO[C@]1(C)C[C@@H](C)CN(C)[C@H]([C@@H]2CCN(CC(C)C)C2)COC(=O)C(C)(C)C(=O)[C@H](C)[C@H]1O[C@@H]1O[C@H](C)C[C@H](N(C)C)[C@H]1O [Compound 123, (3R,6R,8R,9R,10R)-9-(((2S,3R,4S,6R)-4-(dimethylamino)-3-hydroxy-6-methyltetrahydro-2H-pyran-2-yl)oxy)-3-((R)-1-isobutylpyrrolidin-3-yl)-8-methoxy-4,6,8,10,12,12-hexamethyl-1-oxa-4-azacyclotridecane-11,13-dione]
4 to 32 µg/mL (≈ 6.17 to 49.4 µM)	< 4 µg/mL	4 to 32 µg/mL (≈ 6.17 to 49.4 µM)	> 32 µg/mL	> 32 µg/mL	CO[C@]1(C)C[C@@H](C)CN(C)[C@H](C2CCN(CC(F)F)CC2)COC(=O)C(C)(C)C(=O)[C@H](C)[C@H]1O[C@@H]1O[C@H](C)C[C@H](N(C)C)[C@H]1O [Compound 62, (3R,6R,8R,9R,10R)-3-(1-(2,2-difluoroethyl)piperidin-4-yl)-9-(((2S,3R,4S,6R)-4-(dimethylamino)-3-hydroxy-6-methyltetrahydro-2H-pyran-2-yl)oxy)-8-methoxy-4,6,8,10,12,12-hexamethyl-1-oxa-4-azacyclotridecane-11,13-dione]
4 to 32 µg/mL (≈ 6.25 to 50 µM)	4 to 32 µg/mL (≈ 6.25 to 50 µM)	4 to 32 µg/mL (≈ 6.25 to 50 µM)	> 32 µg/mL	> 32 µg/mL	CCC(=O)N1CCC([C@@H]2COC(=O)C(C)(C)C(=O)[C@H](C)[C@@H](O[C@@H]3O[C@H](C)C[C@H](N(C)C)[C@H]3O)[C@](C)(OC)C[C@@H](C)CN2C)CC1 [Compound 13, (3R,6R,8R,9R,10R)-9-(((2S,3R,4S,6R)-4-(dimethylamino)-3-hydroxy-6-methyltetrahydro-2H-pyran-2-yl)oxy)-8-methoxy-4,6,8,10,12,12-hexamethyl-3-(1-propionylpiperidin-4-yl)-1-oxa-4-azacyclotridecane-11,13-dione]
> 32 µg/mL	4 to 32 µg/mL (≈ 6.1 to 48.8 µM)	> 32 µg/mL	> 32 µg/mL	> 32 µg/mL	CO[C@]1(C)C[C@@H](C)CN(C)[C@H](c2ccc(Br)cc2)COC(=O)C(C)(C)C(=O)[C@H](C)[C@H]1O[C@@H]1O[C@H](C)C[C@H](N(C)C)[C@H]1O [Compound 33, (3R,6R,8R,9R,10R)-3-(4-bromophenyl)-9-(((2S,3R,4S,6R)-4-(dimethylamino)-3-hydroxy-6-methyltetrahydro-2H-pyran-2-yl)oxy)-8-methoxy-4,6,8,10,12,12-hexamethyl-1-oxa-4-azacyclotridecane-11,13-dione]
> 32 µg/mL	> 32 µg/mL	> 32 µg/mL	> 32 µg/mL	> 32 µg/mL	C=CCN1CC=C([C@H]2[C@@H](C)OC(=O)C(C)(C)C(=O)[C@H](C)[C@@H](O[C@@H]3O[C@H](C)C[C@H](N(C)C)[C@H]3O)[C@](C)(OC)C[C@@H](C)CN2C)CC1 [Compound 1, (2R,3S,6R,8R,9R,10R)-3-(1-Allyl-1,2,3,6-tetrahydropyridin-4-yl)-9-(((2S,3R,4S,6R)-4-(dimethylamino)-3-hydroxy-6-methyltetrahydro-2H-pyran-2-yl)oxy)-8-methoxy-2,4,6,8,10,12,12-heptamethyl-1-oxa-4-azacyclotridecane-11,13-dione]
> 32 µg/mL	4 to 32 µg/mL (≈ 6.54 to 52.3 µM)	> 32 µg/mL	> 32 µg/mL	> 32 µg/mL	CO[C@]1(C)C[C@@H](C)CN(C)[C@@H]([C@H]2CCN(C(C)=O)C2)COC(=O)C(C)(C)C(=O)[C@H](C)[C@H]1O[C@@H]1O[C@H](C)C[C@H](N(C)C)[C@H]1O [Compound 140, (3S,6R,8R,9R,10R)-3-((S)-1-acetylpyrrolidin-3-yl)-9-(((2S,3R,4S,6R)-4-(dimethylamino)-3-hydroxy-6-methyltetrahydro-2H-pyran-2-yl)oxy)-8-methoxy-4,6,8,10,12,12-hexamethyl-1-oxa-4-azacyclotridecane-11,13-dione]
> 32 µg/mL	< 4 µg/mL	< 4 µg/mL	> 32 µg/mL	> 32 µg/mL	CO[C@]1(C)C[C@@H](C)CN(C)[C@H]([C@@H]2CCN(C)C2)COC(=O)C(C)(C)C(=O)[C@H](C)[C@H]1O[C@@H]1O[C@H](C)C[C@H](N(C)C)[C@H]1O [Compound 182, (3R,6R,8R,9R,10R)-9-(((2S,3R,4S,6R)-4-(dimethylamino)-3-hydroxy-6-methyltetrahydro-2H-pyran-2-yl)oxy)-8-methoxy-4,6,8,10,12,12-hexamethyl-3-((R)-1-methylpyrrolidin-3-yl)-1-oxa-4-azacyclotridecane-11,13-dione]
> 32 µg/mL	< 4 µg/mL	4 to 32 µg/mL (≈ 6.11 to 48.9 µM)	> 32 µg/mL	> 32 µg/mL	CO[C@]1(C)C[C@@H](C)CN(C)[C@H]([C@@H]2CCN(C(=O)CN(C)C)C2)COC(=O)C(C)(C)C(=O)[C@H](C)[C@H]1O[C@@H]1O[C@H](C)C[C@H](N(C)C)[C@H]1O [Compound 148, (3R,6R,8R,9R,10R)-9-(((2S,3R,4S,6R)-4-(Dimethylamino)-3-hydroxy-6-methyltetrahydro-2H-pyran-2-yl)oxy)-3-((R)-1-(dimethylglycyl)pyrrolidin-3-yl)-8-methoxy-4,6,8,10,12,12-hexamethyl-1-oxa-4-azacyclotridecane-11,13-dione]
> 32 µg/mL	4 to 32 µg/mL (≈ 5.98 to 47.8 µM)	> 32 µg/mL	> 32 µg/mL	> 32 µg/mL	CO[C@]1(C)C[C@@H](C)CN(C)[C@@H]([C@H]2CCCN(C(=O)CN(C)C)C2)COC(=O)C(C)(C)C(=O)[C@H](C)[C@H]1O[C@@H]1O[C@H](C)C[C@H](N(C)C)[C@H]1O [Compound 34, (3S,6R,8R,9R,10R)-9-(((2S,3R,4S,6R)-4-(dimethylamino)-3-hydroxy-6-methyltetrahydro-2H-pyran-2-yl)oxy)-3-((S)-1-(dimethylglycyl)piperidin-3-yl)-8-methoxy-4,6,8,10,12,12-hexamethyl-1-oxa-4-azacyclotridecane-11,13-dione]
> 32 µg/mL	4 to 32 µg/mL (≈ 6.11 to 48.9 µM)	4 to 32 µg/mL (≈ 6.11 to 48.9 µM)	> 32 µg/mL	> 32 µg/mL	CO[C@]1(C)C[C@@H](C)CN(C)[C@H]([C@H]2CCN(C(=O)CN(C)C)C2)COC(=O)C(C)(C)C(=O)[C@H](C)[C@H]1O[C@@H]1O[C@H](C)C[C@H](N(C)C)[C@H]1O [Compound 100, (3R,6R,8R,9R,10R)-9-(((2S,3R,4S,6R)-4-(Dimethylamino)-3-hydroxy-6-methyltetrahydro-2H-pyran-2-yl)oxy)-3-((S)-1-(dimethylglycyl)pyrrolidin-3-yl)-8-methoxy-4,6,8,10,12,12-hexamethyl-1-oxa-4-azacyclotridecane-11,13-dione]
> 32 µg/mL	< 4 µg/mL	4 to 32 µg/mL (≈ 7.2 to 57.6 µM)	> 32 µg/mL	> 32 µg/mL	CO[C@]1(C)C[C@@H](C)CN(C)[C@H](C2CNC2)COC(=O)C(C)(C)C(=O)[C@H](C)[C@H]1O[C@@H]1O[C@H](C)C[C@H](N(C)C)[C@H]1O [Compound 134, (3R,6R,8R,9R,10R)-3-(azetidin-3-yl)-9-(((2S,3R,4S,6R)-4-(dimethylamino)-3-hydroxy-6-methyltetrahydro-2H-pyran-2-yl)oxy)-8-methoxy-4,6,8,10,12,12-hexamethyl-1-oxa-4-azacyclotridecane-11,13-dione]

Structure (SMILES)	MIC (S. aureus MP-12)	MIC (E. coli MP-4)	MIC (K. pneumoniae MP-546)	MIC (P. aeruginosa MP-3)	MIC (A. baumannii MP-15)
CNCC(=O)N1C2CCC1CC([C@@H]1COC(=O)C(C)(C)C(=O)[C@H](C)[C@@H](O[C@@H]3O[C@H](C)C[C@H](N(C)C)[C@H]3O)[C@](C)(OC)C[C@@H](C)CN1C)C2 (stereo partly drawn) [Compound 44, (3R,6R,8R,9R,10R)-9-(((2S,3R,4S,6R)-4-(dimethylamino)-3-hydroxy-6-methyltetrahydro-2H-pyran-2-yl)oxy)-8-methoxy-4,6,8,10,12,12-hexamethyl-3-(8-(methylglycyl)-8-azabicyclo[3.2.1]octan-3-yl)-1-oxa-4-azacyclotridecane-11,13-dione]	> 32 µg/mL	4 to 32 µg/mL (≈ 5.87 to 47 µM)	> 32 µg/mL	> 32 µg/mL	> 32 µg/mL
